# Test results from patent US11203773B2, “Designer ribosomes and methods of use thereof for incorporating non-standard amino acids into polypeptides” (Yale University, priority 2016, dated 2021).
# Experiments:
# E. coli TyrRS [1] = target: T1, E. coli TyrRS (Escherichia coli, UniProt P0AGJ9); assay: Aminoacylation of 32P-tRNA with α- and β3-amino acids; assay type: biochemical
# T1 construct: made in house; host or cells: E. coli BL21(DE3)
# T1 sequence (P0AGJ9 1-424): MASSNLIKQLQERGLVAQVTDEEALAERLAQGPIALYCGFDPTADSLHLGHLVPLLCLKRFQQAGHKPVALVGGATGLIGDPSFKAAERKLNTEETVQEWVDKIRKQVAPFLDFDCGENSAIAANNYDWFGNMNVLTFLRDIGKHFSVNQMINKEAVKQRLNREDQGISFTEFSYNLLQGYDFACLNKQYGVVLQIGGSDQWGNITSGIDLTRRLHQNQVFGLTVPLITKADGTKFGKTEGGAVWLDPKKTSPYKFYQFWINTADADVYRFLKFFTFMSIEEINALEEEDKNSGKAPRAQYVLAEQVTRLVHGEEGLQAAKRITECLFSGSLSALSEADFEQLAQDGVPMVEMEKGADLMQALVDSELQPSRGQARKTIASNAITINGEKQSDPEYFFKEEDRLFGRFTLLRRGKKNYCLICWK
# E. coli TyrRS [2] = target: T1, E. coli TyrRS; assay: Adenylation of α- and β-Tyr, coupled MESG/PNP pyrophosphate release assay; assay type: biochemical
# Excerpt: ii. Adenylation of α- and β-Tyr catalyzed by E. coli TyrRS. These reactions were monitored spectrophotometrically in a coupled assay using inorganic pyrophosphatase, 2-amino-6-mercapto-7-methylpurine ribonucleoside (MESG), and purine nucleoside phosphorylase (PNP) to monitor the rate of pyrophosphate release, according to the manufacturer's instructions (Enzcheck Pyrophosphate assay kit, Thermo Fisher Scientific). The assay measures the increase in absorbance at 360 nm due to MESG phosphorolysis, and two molecules of MESG are consumed per pyrophosphate generated. This direct assay could be employed for TyrRS because the rate of ATP hydrolysis (in the absence of amino acid substrate) was insignificant, which was not the case for the other synthetases which therefore required the more laborious pyrophosphate exchange assay described above. […] For TyrRS, kcat is the turnover number (units of reciprocal time) since the change in absorbance can be directly correlated to concentration of pyrophosphate formed.
# E. coli TyrRS [3] = target: T1, E. coli TyrRS; assay: Deacylation assay of [32P]-aminoacyl-tRNA; assay type: biochemical
# Experimental: (§3) Deacylation assays. Large scale (200 μL) aminoacylation reactions were initiated using the conditions described above (iv). The reactions were allowed to proceed for 1 h at 37° C., after which each reaction mixture was phenol/chloroform extracted. In each case, the aminoacylated tRNA product was ethanol precipitated, and the buffer was exchanged using a micro Bio-Spin 6 column (BioRad) following the procedure specified by the manufacturer and 100 mM HEPES (pH 8.0) containing 100 mM KCl. The precise extent of aminoacylation was calculated using the procedure described above; the 2 μM concentration corresponds to total aminoacylated tRNA. Assays were performed at 25° C. in a 50 μL reaction with 2 μM [^32P]-aminoacyl-tRNA in 100 mM HEPES (pH 7.0) containing 100 mM KCl and 15 mM MgCl2.
# E. coli GluRS [4] = target: T2, E. coli GluRS (Escherichia coli, UniProt P04805); assay: Aminoacylation of 32P-tRNA with α- and β3-amino acids; assay type: biochemical; set-up: made in house; host or cells: E. coli BL21(DE3)
# T2 sequence (P04805 whole entry): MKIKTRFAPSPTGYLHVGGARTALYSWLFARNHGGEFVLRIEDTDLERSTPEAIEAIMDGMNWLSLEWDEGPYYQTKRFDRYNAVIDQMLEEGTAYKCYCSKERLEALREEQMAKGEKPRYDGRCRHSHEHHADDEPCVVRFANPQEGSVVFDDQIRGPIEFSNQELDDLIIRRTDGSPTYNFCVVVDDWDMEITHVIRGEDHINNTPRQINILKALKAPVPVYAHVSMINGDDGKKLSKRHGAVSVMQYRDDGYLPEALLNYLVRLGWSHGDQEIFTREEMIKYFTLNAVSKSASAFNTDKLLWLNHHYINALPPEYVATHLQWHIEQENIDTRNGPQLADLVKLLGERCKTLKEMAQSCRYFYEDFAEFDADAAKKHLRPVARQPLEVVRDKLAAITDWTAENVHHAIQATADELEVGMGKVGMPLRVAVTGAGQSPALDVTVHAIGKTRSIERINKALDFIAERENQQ
# E. coli GluRS [5] = target: T2, E. coli GluRS; assay: Deacylation assay of [32P]-aminoacyl-tRNA; assay type: biochemical; set-up: made in house; host or cells: E. coli BL21(DE3); settings: for krev (apparent rate of deacylation): deacylation of aminoacyl-tRNA, GluRS 5.0 μM, 25° C.
# Experimental: as §3
# E. coli GluRS [6] = target: T2, E. coli GluRS; assay: Adenylation of α- and β3-amino acids, pyrophosphate exchange assay; settings: for kcat (min^−1) or RSA (^32P-ATP formed min^−1 enzyme μM^−1): 25° C., pH 7.0
# Experimental: Adenylation of α- and β-Amino Acids Catalyzed by E. coli PheRS, GlyRS, MetRS, and GluRS. […] Briefly, assay mixtures (50 μL) assembled at 25° C. contained the requisite α- or β^3-amino acid substrate (between 5 μM and 5 mM) in 100 mM HEPES (pH 7.0) containing 100 mM KCl, 15 mM MgCl2, 2 mM ATP, 0.5 mM NaPPi, and 50 μCi [^32P]-NaPPi). Reactions were initiated upon addition of enzyme (10 nM MetRS, 10 nM PheRS, or 50 nM GlyRS; 100 nM GluRS for reactions with α-Glu or 1.13 μM GluRS for reactions with β^3-Glu), incubated for various times (10 sec to 10 min), and halted by adding a 5 μL reaction aliquot to 100 μL quenching solution (10% charcoal, 0.5% HCl). 50 μL of 200 mM NaPPi in 1.5 N HCl was then added to each quenched reaction to decrease nonspecific binding of pyrophosphate to the charcoal. Each quenched reaction was then filtered through Whatman filter paper (number 3), previously washed with washing solution (200 mM NaPPi in 1 N HCl) using a 96-well BIO-DOT® apparatus (BioRad). Each well of the apparatus was then washed four times with 200 μL aliquots of washing solution (by pipetting washing solution up and down at least 10 times per wash) to minimize nonspecific binding of pyrophosphate to charcoal. Each experimental well was paired with an analogous control well (no-enzyme control) that lacked enzyme; a single membrane contained time points for both α- and β^3-amino acid substrates and all no-enzyme controls. The membrane was allowed to dry and was protected with a sheet of Microseal B adhesive seals (Biorad) prior to exposure to a BAS Storage Phosphor screen. Screens were imaged on a Typhoon 9500FLA biomolecule imager and the signal intensity of each dot was quantified using ImageJ to determine the relative amount of [^32P]-ATP formed as a function of time (Ctime). Each raw value were corrected by subtracting the intensity of the dot corresponding to the appropriate no-enzyme control (Cblank) and the resulting corrected values of Ccorr (representing the relative amounts of ^32P-ATP formed) were plotted as a function of time to determine values of relative ^32P-ATP formed per minute. Those values were divided by the concentration of enzyme used, and the data was plotted as relative specific activity (^32P-ATP formed min^−1×μM^−1 enzyme) and fitted using Prism by performing nonlinear regression using the least squares method and Equation 1 to obtain RSA (relative specific activity) and KM values (Equation 1 and Table 2).
# In Equation 1, v is the apparent relative specific activity (relative ^32P-ATP formed per minute) obtained at each substrate concentration divided by the enzyme concentration, RSA is the relative specific activity, S is the concentration of substrate, and KM is the Michaelis-Menten constant.
# [7] = tested on: DHFR position 128 translated in E. coli BL21 (DE3); assay: Spectral counting (LC-MS/MS of tryptic peptides) of β3-(p-Br)Phe and α-Phe incorporation into DHFR in vivo; assay type: cell-based; settings: spectral counting
# Excerpt: (§1) To evaluate the extent of in vivo β^3-amino acid incorporation, BL21 (DE3) cells were co-transformed via electroporation (vide infra) with two plasmids. […] The other plasmid encoded either the WT rrnb sequence (pLK35-rrnb), the 040329 mutant reported by Hecht (pLK35-040329.rrnb), or the P7A7 mutant (pLK35-P7A7.rrnb) identified during the puromycin sensitivity screen described above.
# ii. β^3-amino acid incorporation. The subsequent protocol for in vivo β^3-amino acid incorporation employed minimal media and was adapted from procedures reported by Tirrell and Cropp (Liu, et al., Bioorg Med Chem Lett, 20:5613 (2010); Mandavi, et al., J Am Chem Soc, 135:2979 (2013)). Briefly, all 5 mL of the co-transformed cells prepared as described above were diluted into 100 mL of LB containing […] of kanamycin and […] of carbenicillin and grown to OD600=1.0, spun down, and then resuspended in 1/10th the original volume of 19/20 minimal media (10.5 g/L M9 salts, 0.1 mM CaCl2, 1 mM MgSO4, 1% glycerol, 100 μM of each amino acid (minus α-Phe), 25 mg/L thiamine, […] carbenicillin, 30 ng/mL kanamycin, 1 mM IPTG) supplemented with 1 mM of α-Phe or a β^3-Phe analog. Cells were grown overnight (18 h) at 37° C. while shaking (200 rpm). The cells were harvested by centrifugation (10 min at 4000×g) and resuspended in lysis buffer (50 mM NaH2PO4, 300 mM NaCl, 10 mM imidazole (pH 8.0)). Lysis was performed by sonication (Branson Sonifier 250) with 5 cycles of 20 s on, 20 s off. Lysed cells were then centrifuged for 20 min at 15000×g. The clarified cell lysate was incubated with Ni-NTA resin (Qiagen) for 1 h while gently rotating at 4° C. The Ni-NTA column was washed with lysis buffer prior to eluting proteins with elution buffer (50 mM NaH2PO4, 300 mM NaCl, 300 mM imidazole (pH 8.0)). Elutions were analyzed with SDS-PAGE to prepare material for in-gel trypsin digestions. Controls included side-by-side growths in (1) unsupplemented 19/20 minimal media, which contains only low levels of α-Phe present (negative control); (2). […]
# [8] = tested on: BL21(DE3) cells expressing only WT ribosomes; assay: Expression of DHFR in 19/20 minimal media supplemented with amino acid (SDS-PAGE); assay type: cell-based, E. coli; settings: 19/20 minimal media supplemented with 1 mM of the amino acid
# Excerpt: as §1
# (§2) ii. β^3-amino acid incorporation. The subsequent protocol for in vivo β^3-amino acid incorporation employed minimal media and was adapted from procedures reported by Tirrell and Cropp (Liu, et al., Bioorg Med Chem Lett, 20:5613 (2010); Mandavi, et al., J Am Chem Soc, 135:2979 (2013)). Briefly, all 5 mL of the co-transformed cells prepared as described above were diluted into 100 mL of LB containing 50 ng/mL of kanamycin and […] of carbenicillin and grown to OD600=1.0, spun down, and then resuspended in 1/10th the original volume of 19/20 minimal media (10.5 g/L M9 salts, 0.1 mM CaCl2, 1 mM MgSO4, 1% glycerol, 100 μM of each amino acid (minus α-Phe), 25 mg/L thiamine, […] carbenicillin, 30 ng/mL kanamycin, 1 mM IPTG) supplemented with 1 mM of α-Phe or a β^3-Phe analog. Cells were grown overnight (18 h) at 37° C. while shaking (200 rpm). The cells were harvested by centrifugation (10 min at 4000×g) and resuspended in lysis buffer (50 mM NaH2PO4, 300 mM NaCl, 10 mM imidazole (pH 8.0)). Lysis was performed by sonication (Branson Sonifier 250) with 5 cycles of 20 s on, 20 s off. Lysed cells were then centrifuged for 20 min at 15000×g. The clarified cell lysate was incubated with Ni-NTA resin (Qiagen) for 1 h while gently rotating at 4° C. The Ni-NTA column was washed with lysis buffer prior to eluting proteins with elution buffer (50 mM NaH2PO4, 300 mM NaCl, 300 mM imidazole (pH 8.0)). Elutions were analyzed with SDS-PAGE to prepare material for in-gel trypsin digestions. Controls included side-by-side growths in (1) unsupplemented 19/20 minimal media, which contains only low levels of α-Phe present (negative control); (2). 19/20 minimal media supplemented with 1 mM α-Phe (positive control) and (3) and 19/20 minimal media supplemented with 1 mM β^3-Gly (negative control; β^3-aa that is not a β^3-Phe analog).
# [9] = tested on: BL21(DE3) cells expressing P7A7 ribosomes along with WT ribosomes; assay: as above; assay type: cell-based, E. coli; settings: media supplemented with 1 mM of the amino acid
# Excerpt: as §1, §2
# [10] = tested on: BL21(DE3) cells expressing 040329 ribosomes along with WT ribosomes; assay: as above; assay type: cell-based, E. coli; settings: 040329 + WT ribosomes, media supplemented with 1 mM of the amino acid
# Excerpt: as §1, §2
smiles,measurement,setting,value
"N[C@@H](Cc1ccc(O)cc1)C(=O)O [α-Tyr, Tyrosine]",Ratio (α/β) of kcat,E. coli TyrRS [1],56.3 ± 6.8
same,Ratio (α/β) of kcat/KM,E. coli TyrRS [1],1541.7 ± 724.3
same,Ratio (α-/β-) of KM,E. coli TyrRS [2],0.047 ± 0.03
same,Ratio (α-/β-) of kcat,E. coli TyrRS [2],46.2 ± 7.7
same,Ratio (α-/β-) of kcat/KM,E. coli TyrRS [2],972.6 ± 632.0
same,krev (apparent rate of deacylation),"E. coli TyrRS [3]; deacylation of aminoacyl-tRNA, TyrRS 1 μM, 25° C.",1.9 ± 1.3 min⁻¹
same,Ratio (α/β) of krev,"E. coli TyrRS [3]; deacylation, TyrRS",1.01 ± 0.75
"NC(CCC(=O)O)CC(=O)O (stereo not drawn) [β-Glu, β^3-glutamic acid]",Km,E. coli GluRS [4],375 ± 271 µM
same,kcat,E. coli GluRS [4]; 2 μM tRNA,1.25e-05 ± 1.5e-06 s⁻¹
same,krev (apparent rate of deacylation),E. coli GluRS [5],0.43 ± 0.15 min⁻¹
same,Km,E. coli GluRS [6],215 ± 110 µM
same,kcat (min^−1) or RSA (^32P-ATP formed min^−1 enzyme μM^−1),E. coli GluRS [6],42.7 ± 5.8 ^32P-ATP formed min^−1 enzyme μM^−1
"N[C@@H](CCC(=O)O)C(=O)O [α-Glu, Glutamic Acid]",Ratio (α/β) of KM,E. coli GluRS [4],0.94 ± 0.60
same,Ratio (α/β) of kcat,E. coli GluRS [4],61.2 ± 9.1
same,Ratio (α/β) of kcat/KM,E. coli GluRS [4],82.78 ± 68.2
same,krev (apparent rate of deacylation),E. coli GluRS [5],0.32 ± 0.14 min⁻¹
same,Ratio (α/β) of krev,"E. coli GluRS [5]; deacylation, GluRS",0.73 ± 0.42
same,Ratio (α-/β-) of KM,E. coli GluRS [6],0.35 ± 0.27
same,Ratio (α-/β-) of RSA,E. coli GluRS [6],31.6 ± 6.4
same,Ratio (α-/β-) of kcat/KM,E. coli GluRS [6],89.0 ± 70^
same,kcat (min^−1) or RSA (^32P-ATP formed min^−1 enzyme μM^−1),E. coli GluRS [6],1349 ± 206 ^32P-ATP formed min^−1 enzyme μM^−1
NC(CC(=O)O)Cc1ccc(Br)cc1 (stereo not drawn) [β^3-(p-Br)Phe],lower incorporation of β^3-(p-Br)Phe relative to α-Phe,[7]; cells expressing 040329 ribosomes,30 fold
same,lower incorporation of β^3-(p-Br)Phe relative to α-Phe,[7]; cells expressing P7A7 ribosomes,10 fold
same,amount of DHFR generated,[8],trace amounts
same,level of DHFR,[9],highest levels
same,level of DHFR,[10],significant levels
